Reference: patent US10562944B2, “Herbicide-resistant protein, encoding gene and use thereof” (BEIJING DABEINONG BIOTECHNOLOGY CO., LTD., priority 2015, dated 2020)

How the values were obtained:
[1] = system: Soybean plants containing 24DT21 nucleotide sequence (S1, S2, S3); test: Herbicide-resistance effect of transgenic soybean T1 plants (spraying, damage degree); assay type: in vivo; conditions: 2240 g ae/ha (4x); for Average damage % 6 HAT: 6 hours after spraying; for Average damage % 2 DAT: 2 days after spraying; for Average damage % 7 DAT: 7 days after spraying; for Average damage % 14 DAT: 14 days after spraying
Method: (§1) Herbicide resistance effects tests to 2,4-D dimethyl ammonium salt and agroxone of soybean plants containing 24DT21 nucleotide sequence and control nucleotide sequence respectively and wild type soybean plants (stages V3-V4) were performed respectively.
(§2) Soybean plants containing 24DT21 nucleotide sequence, control nucleotide sequence and wild type soybean plants were taken and spayed with 2,4-D dimethyl ammonium salt (2240 g ae/ha, four-folds concentration in field), agroxone (2240 g ae/ha, four-folds concentration in field) and blank solvent (water). Take statistics of the damage degree of each plant caused by herbicides according to the curling degree of leaves and the damage degree of growing point six hours ([…]), two days (2DAT), seven days (7DAT) and 14 days (14DAT) after spraying respectively: if leaves are flat like wild-type leaves and the growing point is intact, the damage degree is 0%; if leaves curl up and wilt and the growing point is died, the damage degree is 100%. There are three strains contained a transferred 24DT21 nucleotide sequence (S1, S2 and S3), two strains contained a transferred control sequence (S4 and S5) and one wild-type strain (CK1) in total; select 10˜15 plants from each strain for testing.

[2] = system: Soybean plants containing control nucleotide sequence (S4, S5); test: Herbicide-resistance effect of soybean plants, control sequence (spraying, damage degree); assay type: in vivo; conditions: 2240 g ae/ha (4x); for Average damage % 6 HAT: 6 hours after spraying; for Average damage % 2 DAT: 2 days after spraying; for Average damage % 7 DAT: 7 days after spraying; for Average damage % 14 DAT: 14 days after spraying
Method: as §1, §2

[3] = system: wild type soybean plants (CK1); test: Herbicide-resistance effect of wild type soybean (spraying, damage degree); assay type: in vivo; conditions: wild-type soybean strain CK1, 2240 g ae/ha (4x)
Method: as §1, §2

[4] = system: wild-type Arabidopsis plants; test: Herbicide resistance effect test of wild-type Arabidopsis (spraying); assay type: in vivo, Arabidopsis thaliana; conditions: genotype Wild, 560 g ae/ha (1x)
From the text: (§3) 24DT21 gene was used to transform Arabidopsis for the first time. At first, T1 transformants were selected from the background of un-transformed seeds, using glufosinate-ammonium selection scheme. About 20000 T1 seeds are screened among which 139 strains of T1 generation positive transformants (PAT gene) were identified, i.e. the transformation efficiency was about 0.7%. Herbicide resistance effect tests to 2,4-D dimethyl ammonium salt and agroxone of Arabidopsis T1 plants transformed with 24DT21 nucleotide sequence, control nucleotide sequence respectively and wild-type Arabidopsis plants were performed after 18 days of planting.
(§4) Arabidopsis T1 plants transformed with 24DT21 nucleotide sequence, control nucleotide sequence respectively and wild-type Arabidopsis plants were sprayed with 2,4-D dimethyl ammonium salt (560 g ae/ha, 1-fold concentration in field), agroxone (560 g ae/ha, 1-fold concentration in field) and blank solvent (water). Resistance conditions of the plants were counted 7 days and 14 days after spraying. Plants with growth conditions consistent with blank solvent (water) 7 days after spaying were classified as highly resistant plants; Plants with curly rosette leaves 7 days after spaying were classified as moderately resistant plants; Plants incapable of bolting 14 days after spaying were classified as low-resistant plants and the dead plants 14 days after spaying were classified as non-resistant plants. Because each Arabidopsis T1 plant is an independent transformation event, significant differences of individual T1 responses can be expected under a given dose.

[5] = system: Arabidopsis T1 plants transformed with control nucleotide sequence; test: Herbicide resistance effect test of Arabidopsis T1 plants, control sequence (spraying); assay type: in vivo, Arabidopsis thaliana; conditions: genotype Control, 560 g ae/ha (1x)
From the text: as §3, §4

[6] = system: Corn plants containing control nucleotide sequence (S9, S10); test: Herbicide-resistance effect test of corn plants, control sequence (spraying, prop root development); assay type: in vivo; conditions: 8960 g ae/ha (16x), 21 days after spraying; for Abnormal development of brace roots / Normal development of brace roots: number of plants
Method: (§5) Herbicide resistance effects tests to 2,4-D dimethyl ammonium salt and agroxone of corn plants containing 24DT21 nucleotide sequence, control nucleotide sequence respectively and wild type corn plants (stages V3-V4) were performed respectively.
(§6) Corn plants containing 24DT21 nucleotide sequence, control nucleotide sequence respectively and wild type corn plants were taken and spayed with 2,4-D dimethyl ammonium salt (8960 g ae/ha, 16-folds concentration in field), agroxone (8960 g ae/ha, 16-folds concentration in field) and blank solvent (water) respectively. Prop root development was counted 21 days after spaying. Three strains (S6, S7 and S8) of corn plants transformed with 24DT21 nucleotide sequence, two strains (S9 and S10) of corn plants transformed with control nucleotide sequence and 1 strain of wild type (CK2) corn were selected and 10-15 plants from each stain were tested.

[7] = system: Corn plants containing 24DT21 nucleotide sequence (S6, S7, S8); test: Herbicide-resistance effect test of transgenic corn T1 plants (spraying, prop root development); assay type: in vivo; conditions: 8960 g ae/ha (16x), 21 days after spraying; for Abnormal development of brace roots / Normal development of brace roots: number of plants
Method: as §5, §6

[8] = system: Arabidopsis T1 plants transformed with 24DT21 nucleotide sequence; test: Herbicide resistance effect test of transgenic Arabidopsis T1 plants (spraying); assay type: in vivo, Arabidopsis thaliana; conditions: genotype 24DT21, 560 g ae/ha (1x)
From the text: as §3, §4

[9] = system: wild type corn plants (CK2); test: Herbicide-resistance effect test of wild type corn (spraying, prop root development); assay type: in vivo; conditions: wild type corn strain CK2, 8960 g ae/ha (16x), 21 days after spraying
Method: as §5, §6

[10] = soybean strain S4 (control sequence)
[11] = soybean strain S5 (control sequence)
[12] = number of plants of 32 dead 14 days after spraying
[13] = number of plants of 32 incapable of bolting 14 days after spraying
[14] = number of plants of 32 with curly rosette leaves 7 days after spraying
[15] = number of plants of 32 with growth consistent with blank solvent 7 days after spraying
[16] = corn strain S9 (control sequence)
[17] = corn strain S10 (control sequence)

Cc1cc(Cl)ccc1OCC(=O)O [agroxone]
Average damage % 6 HAT ([1]; soybean strain S1 (24DT21)): 10%
Average damage % 2 DAT ([1]; soybean strain S1 (24DT21)): 5%
Average damage % 7 DAT ([1]; soybean strain S1 (24DT21)): 0%
Average damage % 14 DAT ([1]; soybean strain S1 (24DT21)): 0%
Average damage % 6 HAT ([1]; soybean strain S2 (24DT21)): 16%
Average damage % 2 DAT ([1]; soybean strain S2 (24DT21)): 11%
Average damage % 7 DAT ([1]; soybean strain S2 (24DT21)): 6%
Average damage % 14 DAT ([1]; soybean strain S2 (24DT21)): 0%
Average damage % 6 HAT ([1]; soybean strain S3 (24DT21)): 7%
Average damage % 2 DAT ([1]; soybean strain S3 (24DT21)): 4%
Average damage % 7 DAT ([1]; soybean strain S3 (24DT21)): 0%
Average damage % 14 DAT ([1]; soybean strain S3 (24DT21)): 0%
Average damage % 6 HAT [2, 10]: 38%
Average damage % 2 DAT [2, 10]: 69%
Average damage % 7 DAT [2, 10]: 87%
Average damage % 14 DAT [2, 10]: 100%
Average damage % 6 HAT [2, 11]: 47%
Average damage % 2 DAT [2, 11]: 74%
Average damage % 7 DAT [2, 11]: 92%
Average damage % 14 DAT [2, 11]: 100%
Average damage % 6 HAT ([3]; 6 hours after spraying): 34%
Average damage % 2 DAT ([3]; 2 days after spraying): 61%
Average damage % 7 DAT ([3]; 7 days after spraying): 82%
Average damage % 14 DAT ([3]; 14 days after spraying): 100%
Non-resistant [4, 12]: 32
Low resistant [4, 13]: 0
Moderate resistant [4, 14]: 0
High resistant [4, 15]: 0
Non-resistant [5, 12]: 32
Low resistant [5, 13]: 0
Moderate resistant [5, 14]: 0
High resistant [5, 15]: 0
Proportion of normal development of brace roots [6, 16]: 0%
Abnormal development of brace roots [6, 16]: 13
Normal development of brace roots [6, 16]: 0
Proportion of normal development of brace roots [6, 17]: 0%
Abnormal development of brace roots [6, 17]: 10
Normal development of brace roots [6, 17]: 0
Proportion of normal development of brace roots ([7]; corn strain S6 (24DT21)): 100.00%
Abnormal development of brace roots ([7]; corn strain S6 (24DT21)): 0
Normal development of brace roots ([7]; corn strain S6 (24DT21)): 11
Proportion of normal development of brace roots ([7]; corn strain S7 (24DT21)): 100.00%
Abnormal development of brace roots ([7]; corn strain S7 (24DT21)): 0
Normal development of brace roots ([7]; corn strain S7 (24DT21)): 12
Proportion of normal development of brace roots ([7]; corn strain S8 (24DT21)): 100.00%
Abnormal development of brace roots ([7]; corn strain S8 (24DT21)): 0
Normal development of brace roots ([7]; corn strain S8 (24DT21)): 13
Non-resistant [8, 12]: 7
Low resistant [8, 13]: 2
Moderate resistant [8, 14]: 2
High resistant [8, 15]: 21
Proportion of normal development of brace roots [9]: 0%
Abnormal development of brace roots ([9]; number of plants): 15
Normal development of brace roots ([9]; number of plants): 0
